Measurements from PubChem BioAssay (NCI).
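All cell lines were grown in 96-well plates and treated with compound for 48 hours. Definition used: TGI = concentration required for complete inhibition of growth.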

How the values were obtained:
Test in all cases: inhibition of tumour cell growth, NCI panel, 48 h
UACC-257 melanoma = tested on: UACC-257 melanoma
ACHN renal = tested on: ACHN renal
HS 578T breast = tested on: HS 578T breast
CAKI-1 renal = tested on: CAKI-1 renal
SK-OV-3 ovarian = tested on: SK-OV-3 ovarian
MALME-3M melanoma = tested on: MALME-3M melanoma
LOX IMVI melanoma = tested on: LOX IMVI melanoma
NCI-H226 lung = tested on: NCI-H226 lung
RPMI-8226 leukemia = tested on: RPMI-8226 leukemia
HOP-92 NSCLC = tested on: HOP-92 NSCLC
NCI-H23 lung = tested on: NCI-H23 lung
U251 CNS = tested on: U251 CNS
OVCAR-8 ovarian = tested on: OVCAR-8 ovarian
HCT-116 colon = tested on: HCT-116 colon
MDA-MB-435 = tested on: MDA-MB-435
OVCAR-5 ovarian = tested on: OVCAR-5 ovarian
HOP-62 NSCLC = tested on: HOP-62 NSCLC
SR leukemia = tested on: SR leukemia
UO-31 renal = tested on: UO-31 renal
A498 renal = tested on: A498 renal
SNB-19 CNS = tested on: SNB-19 CNS
NCI/ADR-RES ovarian = tested on: NCI/ADR-RES ovarian
MDA-N = tested on: MDA-N
MOLT-4 leukemia = tested on: MOLT-4 leukemia
HT29 colon = tested on: HT29 colon
SK-MEL-5 melanoma = tested on: SK-MEL-5 melanoma
CCRF-CEM leukemia = tested on: CCRF-CEM leukemia
K-562 leukemia = tested on: K-562 leukemia
SF-539 CNS = tested on: SF-539 CNS
786-0 renal = tested on: 786-0 renal
MDA-MB-231 breast = tested on: MDA-MB-231 breast
PC-3 prostate = tested on: PC-3 prostate
EKVX NSCLC = tested on: EKVX NSCLC
SK-MEL-28 melanoma = tested on: SK-MEL-28 melanoma
A549 NSCLC = tested on: A549 NSCLC
NCI-H460 lung = tested on: NCI-H460 lung
HCT-15 colon = tested on: HCT-15 colon
T-47D breast = tested on: T-47D breast
SNB-75 CNS = tested on: SNB-75 CNS
OVCAR-3 ovarian = tested on: OVCAR-3 ovarian
COLO 205 colon = tested on: COLO 205 colon
SF-295 CNS = tested on: SF-295 CNS
HL-60(TB) leukemia = tested on: HL-60(TB) leukemia
SF-268 CNS = tested on: SF-268 CNS
SW-620 colon = tested on: SW-620 colon
OVCAR-4 ovarian = tested on: OVCAR-4 ovarian
SK-MEL-2 melanoma = tested on: SK-MEL-2 melanoma
TK-10 renal = tested on: TK-10 renal
RXF 393 renal = tested on: RXF 393 renal
UACC-62 melanoma = tested on: UACC-62 melanoma
HCC-2998 colon = tested on: HCC-2998 colon
KM12 colon = tested on: KM12 colon
SN12C renal = tested on: SN12C renal
M14 melanoma = tested on: M14 melanoma
DU-145 prostate = tested on: DU-145 prostate
MCF7 breast = tested on: MCF7 breast
IGROV1 ovarian = tested on: IGROV1 ovarian
NCI-H522 lung = tested on: NCI-H522 lung

Compound: Cn1cc(C(=O)c2nccc3c2cnc2ccccc23)ccc1=O
- TGI (UACC-257 melanoma): > 100 µM
- TGI (ACHN renal): > 100 µM
- TGI (HS 578T breast): > 100 µM
- TGI (CAKI-1 renal): > 100 µM
- TGI (SK-OV-3 ovarian): > 100 µM
- TGI (MALME-3M melanoma): > 100 µM
- TGI (LOX IMVI melanoma): > 100 µM
- TGI (NCI-H226 lung): > 100 µM
- TGI (RPMI-8226 leukemia): > 100 µM
- TGI (HOP-92 NSCLC): > 100 µM
- TGI (NCI-H23 lung): > 100 µM
- TGI (U251 CNS): > 100 µM
- TGI (OVCAR-8 ovarian): > 100 µM
- TGI (HCT-116 colon): > 100 µM
- TGI (MDA-MB-435): > 100 µM
- TGI (OVCAR-5 ovarian): > 100 µM
- TGI (HOP-62 NSCLC): > 100 µM
- TGI (SR leukemia): 49.7 µM
- TGI (UO-31 renal): > 100 µM
- TGI (A498 renal): > 100 µM
- TGI (SNB-19 CNS): > 100 µM
- TGI (NCI/ADR-RES ovarian): > 100 µM
- TGI (MDA-N): > 100 µM
- TGI (MOLT-4 leukemia): > 100 µM
- TGI (HT29 colon): > 100 µM
- TGI (SK-MEL-5 melanoma): > 100 µM
- TGI (CCRF-CEM leukemia): > 100 µM
- TGI (K-562 leukemia): > 100 µM
- TGI (SF-539 CNS): > 100 µM
- TGI (786-0 renal): > 100 µM
- TGI (MDA-MB-231 breast): > 100 µM
- TGI (PC-3 prostate): > 100 µM
- TGI (EKVX NSCLC): > 100 µM
- TGI (SK-MEL-28 melanoma): > 100 µM
- TGI (A549 NSCLC): > 100 µM
- TGI (NCI-H460 lung): > 100 µM
- TGI (HCT-15 colon): > 100 µM
- TGI (T-47D breast): > 100 µM
- TGI (SNB-75 CNS): > 100 µM
- TGI (OVCAR-3 ovarian): > 100 µM
- TGI (COLO 205 colon): > 100 µM
- TGI (SF-295 CNS): > 100 µM
- TGI (HL-60(TB) leukemia): > 100 µM
- TGI (SF-268 CNS): > 100 µM
- TGI (SW-620 colon): > 100 µM
- TGI (OVCAR-4 ovarian): > 100 µM
- TGI (SK-MEL-2 melanoma): > 100 µM
- TGI (TK-10 renal): > 100 µM
- TGI (RXF 393 renal): 8.62 µM
- TGI (UACC-62 melanoma): > 100 µM
- TGI (HCC-2998 colon): > 100 µM
- TGI (KM12 colon): > 100 µM
- TGI (SN12C renal): > 100 µM
- TGI (M14 melanoma): > 100 µM
- TGI (DU-145 prostate): > 100 µM

Compound: COc1ccc(/C=C2\C=Cc3ccccc32)cc1OC
- TGI (UACC-257 melanoma): > 100 µM
- TGI (ACHN renal): > 100 µM
- TGI (HS 578T breast): 89.6 µM
- TGI (CAKI-1 renal): > 100 µM
- TGI (SK-OV-3 ovarian): > 100 µM
- TGI (MALME-3M melanoma): > 100 µM
- TGI (LOX IMVI melanoma): > 100 µM
- TGI (NCI-H226 lung): > 100 µM
- TGI (MCF7 breast): > 100 µM
- TGI (HOP-92 NSCLC): 64.9 µM
- TGI (NCI-H23 lung): > 100 µM
- TGI (U251 CNS): > 100 µM
- TGI (OVCAR-8 ovarian): > 100 µM
- TGI (HCT-116 colon): > 100 µM
- TGI (IGROV1 ovarian): > 100 µM
- TGI (MDA-MB-435): > 100 µM
- TGI (OVCAR-5 ovarian): > 100 µM
- TGI (HOP-62 NSCLC): > 100 µM
- TGI (SR leukemia): > 100 µM
- TGI (A498 renal): > 100 µM
- TGI (SNB-19 CNS): > 100 µM
- TGI (NCI/ADR-RES ovarian): > 100 µM
- TGI (MDA-N): > 100 µM
- TGI (MOLT-4 leukemia): > 100 µM
- TGI (HT29 colon): > 100 µM
- TGI (SK-MEL-5 melanoma): > 100 µM
- TGI (CCRF-CEM leukemia): > 100 µM
- TGI (K-562 leukemia): > 100 µM
- TGI (SF-539 CNS): > 100 µM
- TGI (786-0 renal): > 100 µM
- TGI (MDA-MB-231 breast): > 100 µM
- TGI (PC-3 prostate): > 100 µM
- TGI (EKVX NSCLC): > 100 µM
- TGI (SK-MEL-28 melanoma): > 100 µM
- TGI (NCI-H522 lung): > 100 µM
- TGI (A549 NSCLC): > 100 µM
- TGI (NCI-H460 lung): > 100 µM
- TGI (HCT-15 colon): > 100 µM
- TGI (T-47D breast): > 100 µM
- TGI (SNB-75 CNS): 82.2 µM
- TGI (OVCAR-3 ovarian): > 100 µM
- TGI (COLO 205 colon): > 100 µM
- TGI (SF-295 CNS): > 100 µM
- TGI (HL-60(TB) leukemia): 69.5 µM
- TGI (SF-268 CNS): > 100 µM
- TGI (SW-620 colon): > 100 µM
- TGI (OVCAR-4 ovarian): > 100 µM
- TGI (SK-MEL-2 melanoma): > 100 µM
- TGI (TK-10 renal): > 100 µM
- TGI (RXF 393 renal): > 100 µM
- TGI (UACC-62 melanoma): > 100 µM
- TGI (HCC-2998 colon): > 100 µM
- TGI (KM12 colon): > 100 µM
- TGI (SN12C renal): > 100 µM
- TGI (M14 melanoma): > 100 µM
- TGI (DU-145 prostate): > 100 µM
